31 compounds from patent US20080070868A1, “Novel Thiazole Inhibitors of Fructose 1,6-bisphosphatase” (Metabasis Therapeutics, Inc., priority 2004, published 2008) can be followed below.

Structures are written as SMILES.

Test [1] deals with T1, human liver FBPase (Homo sapiens, UniProt P09467).
T1 construct: made in house; host or cells: E. coli BL21
T1 sequence (P09467 2-338 limits assumed): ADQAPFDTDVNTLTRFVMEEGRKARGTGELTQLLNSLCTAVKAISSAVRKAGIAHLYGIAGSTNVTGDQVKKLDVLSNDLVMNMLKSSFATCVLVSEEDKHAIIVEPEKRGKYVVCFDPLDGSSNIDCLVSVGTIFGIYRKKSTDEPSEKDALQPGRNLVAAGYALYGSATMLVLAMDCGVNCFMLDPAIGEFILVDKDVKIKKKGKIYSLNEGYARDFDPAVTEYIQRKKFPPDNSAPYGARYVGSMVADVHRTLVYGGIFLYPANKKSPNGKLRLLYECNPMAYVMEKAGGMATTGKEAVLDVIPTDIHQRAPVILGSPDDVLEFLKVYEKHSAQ
As to the kind of experiment: Inhibition of human liver FBPase. The format is biochemical. The conditions noted are these: for IC50: purified recombinant human liver FBPase, 0.150 mM fructose 1,6-bisphosphate, 37° C., read-out: IC50 (hlFBPase). As to the method:
E. coli strain BL21 transformed with a human liver FBPase-encoding plasmid was obtained from Dr. M. R. El-Maghrabi at the State University of New York at Stony Brook. […] Enzymatic activity was measured spectrophotometrically in reactions that coupled the formation of product (fructose 6-phosphate) to the reduction of dimethylthiazoldiphenyltetrazolium bromide (MTT) via NADP^+ and phenazine methosulfate (PMS), using phosphoglucose isomerase and glucose 6-phosphate dehydrogenase as the coupling enzymes. Reaction mixtures (200 μl) were made up in 96-well microtitre plates, and consisted of 50 mM Tris-HCl, pH 7.4, 100 mM KCl, 5 mM EGTA, 2 mM MgCl2, 0.2 mM NADP, 1 mg/ml BSA, 1 mM MTT, 0.6 mM PMS, 1 unit/ml phosphoglucose isomerase, 2 units/ml glucose 6-phosphate dehydrogenase, and 0.150 mM substrate (fructose 1,6-bisphosphate). Inhibitor concentrations were varied from 0.01 μM to 10 μM. Reactions were started by the addition of 0.002 units of pure hlFBPase, and were monitored for 7 min. at 590 nm in a Molecular Devices Plate Reader (37° C.).

In test [2] the test system is Sprague-Dawley rats. The experiment in a line: Glucose lowering following oral administration to the fasted, normal rat. As to conditions: maximum lowering relative to saline controls, 10 mg/kg oral, 18-h fasted rats. The class given is in vivo. As to the method: Compounds were administered by oral gavage to 18-h fasted, Sprague-Dawley rats (250-300 g, n=3/4/group) at a dose of 10 mg/kg. Phosphonic acids (active moieties) were prepared in deionized water, and the solution adjusted to neutrality with sodium hydroxide. Prodrugs were dissolved in polyethylene glycol (mw 400). Blood samples were taken via tail vein nick immediately prior to dosing and at 1 h intervals thereafter. Blood glucose was analyzed by means of a HemoCue glucose analyzer (HemoCue Inc., Mission Viejo, Calif.). The table below indicates the maximum % glucose lowering achieved relative to control animals dosed with saline.

As usually defined, the IC50 is the concentration that inhibits the measured activity by half. In the case of `Nc1ncnc2c1ncn2[C@@H]1O[C@H](COP(=O)(O)O)[C@@H](O)[C@H]1O` [AMP, reference compound], the IC50 in test [1] came out at 1000 nM.
Still for that read-out and setting: as for `Nc1nc(-c2ccc(P(=O)(O)O)o2)c(C(=O)C2CCCCC2)s1` [Compound 1.6, [5-(2-amino-5-cyclohexylcarbonyl-thiazol-4-yl)furan-2-yl]-phosphonic acid], the figure is 40 nM; as for `Nc1nc(-c2ccc(P(=O)(O)O)o2)c(C(=O)c2cccs2)s1` [Compound 1.7, [5-(2-amino-5-(2-thienylcarbonyl)thiazol-4-yl)furan-2-yl]-phosphonic acid], 41 nM; as for `Nc1nc(-c2ccc(P(=O)(O)O)o2)c(C(=O)c2cccc(F)c2)s1` [Compound 1.8, [5-(2-amino-5-(3-fluorobenzoyl)thiazol-4-yl)furan-2-yl]-phosphonic acid], 37 nM.
Take `Nc1nc(-c2ccc(P(=O)(O)O)o2)c(C(=O)c2ccc(Cl)cc2)s1` [Compound 1.9, [5-(2-amino-5-(4-chlorobenzoyl)thiazol-4-yl)furan-2-yl]-phosphonic acid]: the IC50 in test [1] came to 86 nM.
Same read-out and setting: as for `Cc1ccc(C(=O)c2sc(N)nc2-c2ccc(P(=O)(O)O)o2)cc1` [Compound 1.10, [5-(2-amino-5-(4-methylbenzoyl)thiazol-4-yl)furan-2-yl]-phosphonic acid], the figure is 48 nM.
On to `Cc1cccc(C(=O)c2sc(N)nc2-c2ccc(P(=O)(O)O)o2)c1` [Compound 1.11, [5-(2-amino-5-(3-methylbenzoyl)thiazol-4-yl)furan-2-yl]-phosphonic acid], for which the IC50 in test [1] stood at 36 nM.
Regarding `Nc1nc(-c2ccc(P(=O)(O)O)o2)c(C(=O)c2cccc(Cl)c2)s1` [Compound 1.12, [5-(2-amino-5-(3-chlorobenzoyl)thiazol-4-yl)furan-2-yl]-phosphonic acid], in test [1], the IC50 was 73 nM.
As for `Cc1ccccc1C(=O)c1sc(N)nc1-c1ccc(P(=O)(O)O)o1` [Compound 1.13, [5-(2-amino-5-(2-methylbenzoyl)thiazol-4-yl)furan-2-yl]-phosphonic acid], in test [1], the IC50 amounted to 48 nM.
With `COc1ccccc1C(=O)c1sc(N)nc1-c1ccc(P(=O)(O)O)o1` [Compound 1.14, [5-(2-amino-5-(2-methoxybenzoyl)thiazol-4-yl)furan-2-yl]-phosphonic acid], the IC50 in test [1] came out at 118 nM.
On the same count and under the same terms, next, `COc1ccc(C(=O)c2sc(N)nc2-c2ccc(P(=O)(O)O)o2)cc1` [Compound 1.16, [5-(2-amino-5-(4-methoxybenzoyl)thiazol-4-yl)furan-2-yl]-phosphonic acid]: 61 nM; `COc1ccc(C(=O)c2sc(N)nc2-c2ccc(P(=O)(O)O)o2)cc1OC` [Compound 1.17, [5-(2-amino-5-(3,4-dimethoxybenzoyl)thiazol-4-yl)furan-2-yl]-phosphonic acid]: 94 nM; `COc1cccc(C(=O)c2sc(N)nc2-c2ccc(P(=O)(O)O)o2)c1` [Compound 1.18, [5-(2-amino-5-(3-methoxybenzoyl)thiazol-4-yl)furan-2-yl]-phosphonic acid]: 85 nM.
As to `Nc1nc(-c2ccc(P(=O)(O)O)o2)c(C(=O)c2ccc3c(c2)OCO3)s1` [Compound 1.19, [5-(2-amino-5-(3,4-methylenedioxybenzoyl)thiazol-4-yl)-furan-2-yl]phosphonic acid], the IC50 in test [1] was 53 nM.
Same read-out and setting: next, `Nc1nc(-c2ccc(P(=O)(O)O)o2)c(C(=O)c2ccc(N3CCCC3)c(Cl)c2)s1` [Compound 1.21, [5-(2-amino-5-(3-chloro-4-(1-pyrrolidinyl)benzoyl)-thiazol-4-yl)furan-2-yl]-phosphonic acid]: 54 nM; `Nc1nc(-c2ccc(P(=O)(O)O)o2)c(C(=O)c2ccc(F)cc2)s1` [Compound 1.22, [5-(2-amino-5-(4-fluorobenzoyl)thiazol-4-yl)furan-2-yl]-phosphonic acid]: 33 nM.
Still for that read-out and setting: next, `CCC(CC)C(=O)c1sc(N)nc1-c1ccc(P(=O)(O)O)o1` [Compound 1.23, [5-(2-amino-5-(2-ethylbutyryl)thiazol-4-yl)furan-2-yl]-phosphonic acid]: 9 nM; `Nc1nc(-c2ccc(P(=O)(O)O)o2)c(C(=O)c2ccc(C(F)(F)F)cc2)s1` [Compound 1.24, [5-(2-amino-5-(4-trifluoromethylbenzoyl)thiazol-4-yl)-furan-2-yl]phosphonic acid]: 99 nM; `Nc1nc(-c2ccc(P(=O)(O)O)o2)c(C(=O)c2ccc(N3CCOCC3)c(Cl)c2)s1` [Compound 1.25, [5-(2-amino-5-(3-chloro-4-(1-morpholinyl)benzoyl)-thiazol-4-yl)furan-2-yl]phosphonic acid]: 95 nM.
Same read-out and setting: next, `Nc1nc(-c2ccc(P(=O)(O)O)o2)c(C(=O)c2cccc(C(F)(F)F)c2)s1` [Compound 1.26, [5-(2-amino-5-(3-trifluoromethylbenzoyl)thiazol-4-yl)-furan-2-yl]phosphonic acid]: 119 nM; `Nc1nc(-c2ccc(P(=O)(O)O)o2)c(C(=O)c2ccccc2C(F)(F)F)s1` [Compound 1.27, [5-(2-amino-5-(2-trifluoromethylbenzoyl)thiazol-4-yl)-furan-2-yl]phosphonic acid]: 111 nM; `Nc1nc(-c2ccc(P(=O)(O)O)o2)c(C(=O)c2ccc(-c3ccccc3)cc2)s1` [Compound 1.28, [5-(2-amino-5-(4-phenylbenzoyl)thiazol-4-yl)furan-2-yl]-phosphonic acid]: 57 nM.
`Nc1nc(-c2ccc(P(=O)(O)O)o2)c(C(=O)c2ccc3ccccc3c2)s1` [Compound 1.29, [5-(2-amino-5-(2-naphthylcarbonyl)thiazol-4-yl)furan-2-yl]-phosphonic acid]: the IC50 in test [1] came out at 60 nM.
On to `Nc1nc(-c2ccc(P(=O)(O)O)o2)c(C(=O)C2CCCC2)s1` [Compound 1.30, [5-(2-amino-5-cyclopentylcarbonylthiazol-4-yl)furan-2-yl]-phosphonic acid], for which the IC50 in test [1] was found to be 14 nM.
Regarding `Nc1nc(-c2ccc(P(=O)(O)O)o2)c(C(=O)c2ccc(N3CCCCC3)cc2)s1` [Compound 1.31, [5-(2-amino-5-(4-piperidinylbenzoyl)thiazol-4-yl)furan-2-yl]-phosphonic acid], the IC50 in test [1] came to 73 nM.
Same read-out and setting: next, `CN(C)c1ccc(C(=O)c2sc(N)nc2-c2ccc(P(=O)(O)O)o2)cc1` [Compound 1.32, [5-(2-amino-5-(4-(N,N-dimethylamino)benzoyl)thiazol-4-yl)-furan-2-yl]phosphonic acid]: 105 nM; `CCC(C)C(=O)c1sc(N)nc1-c1ccc(P(=O)(O)O)o1` (centres unmarked) [Compound 1.33, [5-(2-amino-5-(2-methylbutyryl)thiazol-4-yl)furan-2-yl]-phosphonic acid]: 11 nM; `Nc1nc(-c2ccc(P(=O)(O)O)o2)c(C(=O)C2CCC2)s1` [Compound 1.34, [5-(2-amino-5-cyclobutylcarbonylthiazol-4-yl)furan-2-yl]-phosphonic acid]: 16 nM.
In general, inhibition in vivo refers to how much of the control response was suppressed. A lower inhibition in vivo goes with a weak effect. With `CCOC(=O)OCOP(=O)(OCOC(=O)OCC)c1ccc(-c2nc(N)sc2C(=O)C(C)(C)C)o1` [Compound 8.3, 2-amino-5-(2,2-dimethylpropionyl)-4-{[5-(O,O′-bis(ethoxycarbonyl-oxymethyl)phosphono)]furan-2-yl}thiazole], in test [2], the inhibition in vivo at 10 mg/kg worked out at 24%.
For the compound `CC(C)(C)C(=O)OCOP(=O)(OCOC(=O)C(C)(C)C)c1ccc(-c2nc(N)sc2C(=O)C(C)(C)C)o1` [Compound 8.4, 2-amino-5-(2,2-dimethylpropionyl)-4-{[5-(O,O′-bis(pivalyloxymethyl)phosphono)]furan-2-yl}thiazole], 10 mg/kg produced 6% inhibition in vivo in test [2].
As to `CC(=O)Nc1nc(-c2ccc(P(=O)(O)O)o2)c(C(=O)C(C)(C)C)s1` [N-acetyl-1.1, reference compound], the “rightward shift in potency in the FBPase assay on N-acetylation” value in test [1] (N-acetyl-1.1 relative to 1.1) is reported as 74.5 fold. Further, the IC50 in test [1] turned out to be 2310 nM.
